Target: Glycogen synthase kinase-3 beta (Homo sapiens, UniProt P49841)
Assay: Biochemical hGSK-3Beta Assay: Compounds were tested for their ability to inhibit human Glycogen Synthase Kinase-3 beta (hGSK-3β) to phosphorylate biotin-[…](pS)EDEEE. Compounds were incubated with 0.5 μCi 33P-ATP, 10 μM ATP, 0.0125 U hGSK-3β (Upstate cell signaling solutions) and 1 μM substrate (biotin-[…](pS)EDEEE) in 50 mM HEPES, 10 mM MgCl2, 100 mM Na3VO4, 1 mM DTT, 0.0075% Triton, 2% DMSO (total volume 50 μL) for 30 minutes at room temperature. The incubation was stopped by addition of an equal volume of 100 mM EDTA, 4M NaCl. 80 μL of this mixture was added to streptavidin-coated Flash-plates (PerkinElmer). Following a wash step, 33P incorporation was quantified on a MicroBeta microplate liquid scintillation counter (Perkin Elmer). IC50s were determined by fitting a sigmoidal dose-response curve to the counts obtained at the different concentrations in GraphPad Prism.

Chain of Glycogen synthase kinase-3 beta (P49841 whole entry): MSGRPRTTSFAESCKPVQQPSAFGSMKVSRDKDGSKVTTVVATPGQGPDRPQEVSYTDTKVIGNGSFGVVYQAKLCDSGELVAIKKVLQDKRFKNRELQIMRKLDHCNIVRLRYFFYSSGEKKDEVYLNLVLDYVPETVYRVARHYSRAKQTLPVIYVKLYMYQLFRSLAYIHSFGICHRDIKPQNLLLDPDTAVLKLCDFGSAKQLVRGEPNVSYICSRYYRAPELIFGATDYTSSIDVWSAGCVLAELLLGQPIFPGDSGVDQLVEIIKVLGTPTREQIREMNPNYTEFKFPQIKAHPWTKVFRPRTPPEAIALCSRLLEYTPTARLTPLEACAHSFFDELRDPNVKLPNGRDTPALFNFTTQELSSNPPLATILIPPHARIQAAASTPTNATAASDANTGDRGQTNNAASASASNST

SMILES | IC50 [nM]
N#Cc1ccc2c(c1)C(c1ccc3c(n1)CCCC3=O)C(=O)N2 (configuration not stated) | < 100
N#Cc1ccc2c(c1)C(c1ccc3c(n1)C(O)CCC3)C(=O)N2 (configuration not stated) | < 100

— ChEMBL document CHEMBL5725797, “Heterocyclic compounds and their use as glycogen synthase kinase-3 inhibitors” (2018)
